This test addresses SAE1 (Homo sapiens (Human), UniProt Q9UBE0+Q9UBT2). Kind of test: SAE High Throughput Biochemical Assay (HTRF), 15 min preincubation. As to conditions: read-out: 15 min preincubation HTRF IC50 (μM) Ave, SAE1 12.5 nM, ATP 100 μM. Here is the method:
Assay buffer was prepared [50 mM HEPES, pH 7.5, 0.1% BSA and 10 mM MgCl2] as was the Stop Buffer [100 mM HEPES, pH 7.5, 0.05% Tween20, and 410 mM KF]. The 2×Reaction Buffer [80 nM SUMO-GST, 80 nM UBC9-His, 200 μM ATP and diluted in Assay Buffer] and Antibody Reaction Mix [13.34 nM anti-GSTXL665, 1.66 nM anti-His EuK and Diluted in Stop Buffer] were also prepared. Compounds were dissolved at 200×in DMSO in a 384-well plate. Serial dilutions were performed in DMSO for each compound, and then each concentration was diluted another 50-fold in Assay Buffer, to 4× the final concentration. 2.5 μL of each concentration was transferred into its own well in a 384-well plate. SAE1 was then diluted to 4× in Assay Buffer, and 2.5 μL of 4×SAE1 was mixed into each compound-containing well. After incubating for 15 minutes at RT, 5 μL of 2×Reaction Buffer was mixed into every well. Then after another 45 minutes at RT, 10 μL of Antibody Reaction Mix was added and mixed into every well. This plate was then read on an HTRF-compatible plate reader after 2 hours at RT, and again after sitting at RT overnight. [Final Component Concentrations: SAE1: 12.5 nM; SUMO-GST: 40 nM; UBC9-His: 40 nM; Anti-GST-XL665: 6.67 nM; Anti-His-EuK: 0.83 nM; and ATP: 100 μM] Alternatively, the compounds are tested at a single concentration of 25 micromolar and the percent of control is measured.
SAE1, sequence (Q9UBE0 whole entry): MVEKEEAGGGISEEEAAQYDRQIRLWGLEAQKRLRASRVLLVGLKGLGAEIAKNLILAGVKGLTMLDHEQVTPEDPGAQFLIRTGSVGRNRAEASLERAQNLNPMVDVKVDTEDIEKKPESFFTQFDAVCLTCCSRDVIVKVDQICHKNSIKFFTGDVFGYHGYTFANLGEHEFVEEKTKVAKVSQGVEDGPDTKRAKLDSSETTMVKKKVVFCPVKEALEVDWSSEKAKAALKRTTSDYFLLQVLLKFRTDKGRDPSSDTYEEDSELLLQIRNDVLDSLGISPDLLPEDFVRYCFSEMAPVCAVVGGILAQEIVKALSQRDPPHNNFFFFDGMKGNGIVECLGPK
SAE1, sequence (Q9UBT2 whole entry): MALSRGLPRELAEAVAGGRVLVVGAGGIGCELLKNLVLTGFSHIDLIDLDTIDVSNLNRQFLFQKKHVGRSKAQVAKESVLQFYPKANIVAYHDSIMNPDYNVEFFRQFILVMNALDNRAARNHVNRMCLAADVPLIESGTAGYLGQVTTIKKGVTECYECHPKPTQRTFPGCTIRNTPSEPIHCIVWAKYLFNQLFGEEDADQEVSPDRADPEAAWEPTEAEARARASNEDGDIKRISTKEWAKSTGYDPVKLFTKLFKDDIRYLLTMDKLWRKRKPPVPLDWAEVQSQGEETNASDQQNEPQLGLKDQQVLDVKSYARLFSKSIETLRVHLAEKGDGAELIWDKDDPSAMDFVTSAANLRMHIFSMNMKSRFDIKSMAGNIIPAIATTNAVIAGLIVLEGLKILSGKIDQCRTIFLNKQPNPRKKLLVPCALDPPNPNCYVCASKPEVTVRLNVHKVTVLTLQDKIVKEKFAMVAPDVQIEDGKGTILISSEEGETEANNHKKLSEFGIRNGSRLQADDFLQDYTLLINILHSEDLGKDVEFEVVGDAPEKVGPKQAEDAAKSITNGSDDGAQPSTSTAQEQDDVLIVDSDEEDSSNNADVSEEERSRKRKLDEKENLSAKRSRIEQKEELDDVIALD
Turning to `CC(C(=O)N(C)C)n1cc(-c2ccccc2[C@@H]2CN(C(=O)/C=C/CN(C)C)Cc3sc(C#N)cc32)c(C(F)(F)F)n1` (stereo partly drawn) [Example 163, 2-(4-(2-((S)-2-Cyano-6-((E)-4-(dimethylamino)but-2-enoyl)-4,5,6,7-tetrahydrothieno[2,3-c]pyridin-4-yl)phenyl)-3-(trifluoromethyl)-1 H-pyrazol-1-yl)-N, N-dimethylpropanamide], the IC50 is 8.68 µM.
With `CC(C(=O)N(C)C)n1cc(-c2ccccc2[C@@H]2CN(C(=O)/C=C/CN(C)C)Cc3sc(C#N)cc32)c(C(F)(F)F)n1` (stereo partly drawn) [Example 164, 2-(4-(2-((S)-2-Cyano-6-((E)-4-(dimethylamino)but-2-enoyl)-4,5,6,7-tetrahydrothieno[2,3-c]pyridin-4-yl)phenyl)-3-(trifluoromethyl)-1 H-pyrazol-1-yl)-N, N-dimethylpropanamide] the figure was 10.9 µM.
Next, `CN(C)C/C=C/C(=O)N1Cc2sc(C#N)cc2[C@H](c2ccccc2-c2cn(Cc3ncno3)nc2C(F)(F)F)C1` [Example 166, (S,E)-4-(2-(1-((1,2,4-Oxadiazol-5-yl)methyl)-3-(trifluoromethyl)-1H pyrazol-4-yl)phenyl)-6-(4-(dimethylamino)but-2-enoyl)-4,5,6,7-tetrahydrothieno[2,3-c]pyridine-2-carbonitrile]: 19.9 µM; `CN(C)C/C=C/C(=O)N1Cc2sc(C#N)cc2[C@H](c2ccccc2-c2cn(S(C)(=O)=O)nc2C(F)(F)F)C1` [Example 168, (S, E)-6-(4-(Dimethylamino)but-2-enoyl)-4-(2-(1-(methylsulfonyl)-3-(trifluoromethyl)-1 H pyrazol-4-yl)phenyl)-4,5,6,7-tetrahydrothieno[2,3-c]pyridine-2-carbonitrile]: 18.8 µM; `CCOC(=O)Cn1cc(-c2ccccc2[C@@H]2CN(C(=O)/C=C/CN(C)C)Cc3sc(C#N)cc32)c(C(F)(F)F)n1` [Example 169, Ethyl (S,E)-2-(4-(2-(2-cyano-6-(4-(dimethylamino)but-2-enoyl)-4,5,6,7-tetrahydrothieno[2,3-c]pyridin-4-yl)phenyl)-3-(trifluoromethyl)-1 H-pyrazol-1-yl)acetate]: 14.5 µM.
On to `CCOC(=O)CCn1cc(-c2ccccc2[C@@H]2CN(C(=O)/C=C/CN(C)C)Cc3sc(C#N)cc32)c(C(F)(F)F)n1` [Example 170, Ethyl (S,E)-3-(4-(2-(2-cyano-6-(4-(dimethylamino)but-2-enoyl)-4,5,6,7-tetrahydrothieno[2,3-c]pyridin-4-yl)phenyl)-3-(trifluoromethyl)-1H pyrazol-1-yl)propanoate], for which the 50% inhibitory concentration (IC50) is 10.2 µM.
With `CCOC(=O)CCCn1cc(-c2ccccc2[C@@H]2CN(C(=O)/C=C/CN(C)C)Cc3sc(C#N)cc32)c(C(F)(F)F)n1` [Example 171] the figure was 12 µM; with `CN(C)C/C=C/C(=O)N1Cc2sc(C#N)cc2[C@H](c2ccccc2-c2cn(CC(=O)O)nc2C(F)(F)F)C1` [Example 172, (S, E)-2-(4-(2-(2-Cyano-6-(4-(dimethylamino)but-2-enoyl)-4,5,6,7-tetrahydrothieno[2,3-c]pyridin-4-yl)phenyl)-3-(trifluoromethyl)-1H pyrazol-1-yl)acetic acid], 21.1 µM.
With `CN(C)C/C=C/C(=O)N1Cc2sc(C#N)cc2[C@H](c2ccccc2-c2cn(CCC(=O)O)nc2C(F)(F)F)C1` [Example 173, (S, E)-3-(4-(2-(2-Cyano-6-(4-(dimethylamino)but-2-enoyl)-4,5,6,7-tetrahydrothieno[2,3-c]pyridin-4-yl)phenyl)-3-(trifluoromethyl)-1H-pyrazol-1-yl)propanoic acid] the figure was 17.3 µM; with `CN(C)C/C=C/C(=O)N1Cc2sc(C#N)cc2[C@H](c2ccccc2-c2cn(CCCC(=O)O)nc2C(F)(F)F)C1` [Example 174, (S, E)-4-(4-(2-(2-Cyano-6-(4-(dimethylamino)but-2-enoyl)-4,5,6,7-tetrahydrothieno[2,3-c]pyridin-4-yl)phenyl)-3-(trifluoromethyl)-1H pyrazol-1-yl)butanoic acid], 12.5 µM.
Take `CN(C)C/C=C/C(=O)N1Cc2sc(C#N)cc2[C@H](c2ccccc2-c2cn(CCc3ccccn3)nc2C(F)(F)F)C1` [Example 176, (S, E)-6-(4-(Dimethylamino)but-2-enoyl)-4-(2-(1-(2-(pyridin-2-yl)ethyl)-3-(trifluoromethyl)-1H-pyrazol-4-yl)phenyl)-4,5,6,7-tetrahydrothieno[2,3-c]pyridine-2-carbonitrile]: the IC50 turned out to be 19.9 µM.
With `CN(C)C/C=C/C(=O)N1Cc2sc(C#N)cc2[C@H](c2ccccc2-c2cn(CCc3ccncc3)nc2C(F)(F)F)C1` [Example 177, (S,E)-6-(4-(Dimethylamino)but-2-enoyl)-4-(2-(1-(2-(pyridin-4-yl)ethyl)-3-(trifluoromethyl)-1H pyrazol-4-yl)phenyl)-4,5,6,7-tetrahydrothieno[2,3-c]pyridine-2-carbonitrile] the figure was 6.3 µM.
With `CCn1cc(-c2c(C3CN(C(=O)/C=C/CN(C)C)Cc4sc(C#N)cc43)ccc(F)c2F)c(C(F)(F)F)n1` (stereo not shown) [Example 184, (E)-6-(4-(Dimethylamino)but-2-enoyl)-4-(2-(1-ethyl-3-(trifluoromethyl)-1 H-pyrazol-4-yl)-3,4-difluorophenyl)-4,5,6,7-tetrahydrothieno[2,3-c]pyridine-2-carbonitrile] the figure was 8.37 µM.
With `CCn1cc(-c2c(C3CN(C(=O)/C=C/CN(C)C)Cc4sc(C#N)cc43)ccc(F)c2Cl)c(C(F)(F)F)n1` (stereo not shown) [Example 187, (E)-4-(3-Chloro-2-(1-ethyl-3-(trifluoromethyl)-1 H-pyrazol-4-yl)-4-fluorophenyl)-6-(4-(dimethylamino)but-2-enoyl)-4,5,6,7-tetrahydrothieno[2,3-c]pyridine-2-carbonitrile] the figure was 8.1 µM; with `CCn1cc(-c2cc(C(F)F)ccc2C2CN(C(=O)/C=C/CN(C)C)Cc3sc(C#N)cc32)c(C(F)(F)F)n1` (stereo not shown) [Example 188, (E)-4-(4-(Difluoromethyl)-2-(1-ethyl-3-(trifluoromethyl)-1 H-pyrazol-4-yl)phenyl)-6-(4-(dimethylamino)but-2-enoyl)-4,5,6,7-tetrahydrothieno[2,3-c]pyridine-2-carbonitrile], 18 µM; with `CCn1cc(-c2nc(N)ccc2C2CN(C(=O)/C=C/CN(C)C)Cc3sc(C#N)cc32)c(C(F)(F)F)n1` (stereo not shown) [Example 192, (E)-4-(6-Amino-2-(1-ethyl-3-(trifluoromethyl)-1 H-pyrazol-4-yl)pyridin-3-yl)-6-(4-(dimethylamino)but-2-enoyl)-4,5,6,7-tetrahydrothieno[2,3-c]pyridine-2-carbonitrile], over 25 µM.
Consider `CCn1cc(-c2cc(CO)ccc2C2CN(C(=O)/C=C/CN(C)C)Cc3sc(C#N)cc32)c(C(F)(F)F)n1` (stereo not shown) [Example 194, (E)-6-(4-(Dimethylamino)but-2-enoyl)-4-(2-(1-ethyl-3-(trifluoromethyl)-1 H-pyrazol-4-yl)-4-(hydroxymethyl)phenyl)-4,5,6,7-tetrahydrothieno[2,3-c]pyridine-2-carbonitrile], for which the IC50 is over 25 µM.
For the compound `CCn1cc(-c2cc(NC(=O)NC)ccc2C2CN(C(=O)/C=C/CN(C)C)Cc3sc(C#N)cc32)c(C(F)(F)F)n1` (stereo not shown) [Example 195, (E)-1-(4-(2-Cyano-6-(4-(dimethylamino)but-2-enoyl)-4,5,6,7-tetrahydrothieno[2,3-c]pyridin-4-yl)-3-(1-ethyl-3-(trifluoromethyl)-1 H-pyrazol-4-yl)phenyl)-3-methylurea], the IC50 is 11.3 µM.
Regarding `CCn1cc(-c2ccc(N)cc2C2CN(C(=O)/C=C/CN(C)C)Cc3sc(C#N)cc32)c(C(F)(F)F)n1` (stereo not shown) [Example 196, (E)-4-(5-Amino-2-(1-ethyl-3-(trifluoromethyl)-1 H-pyrazol-4-yl)phenyl)-6-(4-(dimethylamino)but-2-enoyl)-4,5,6,7-tetrahydrothieno[2,3-c]pyridine-2-carbonitrile], the IC50 was over 25 µM.
With `CCn1cc(-c2cc(NC(C)=O)ccc2C2CN(C(=O)/C=C/CN(C)C)Cc3sc(C#N)cc32)c(C(F)(F)F)n1` (stereo not shown) [Example 197, (E)-N-(4-(2-Cyano-6-(4-(dimethylamino)but-2-enoyl)-4,5,6,7-tetrahydrothieno[2,3-c]pyridin-4-yl)-3-(1-ethyl-3-(trifluoromethyl)-1 H-pyrazol-4-yl)phenyl)acetamide] the figure was 15.2 µM; with `CCn1cc(-c2c(C3CN(C(=O)/C=C/CN(C)C)Cc4sc(C#N)cc43)cnn2C)c(C(F)(F)F)n1` (stereo not shown) [Example 198, (E)-6-(4-(Dimethylamino)but-2-enoyl)-4-(1′-ethyl-2-methyl-3′-(trifluoromethyl)-1′H,2H-[3,4′-bipyrazol]-4-yl)-4,5,6,7-tetrahydrothieno[2,3-c]pyridine-2-carbonitrile], over 25 µM; with `CCn1cc(-c2c(C3CN(C(=O)/C=C/CN(C)C)Cc4sc(C#N)cc43)ccnc2F)c(C(F)(F)F)n1` (stereo not shown) [Example 202, (E)-6-(4-(Dimethylamino)but-2-enoyl)-4-(3-(1-ethyl-3-(trifluoromethyl)-1 H-pyrazol-4-yl)-2-fluoropyridin-4-yl)-4,5,6,7-tetrahydrothieno[2,3-c]pyridine-2-carbonitrile], 24.9 µM.

Source of the values: patent publication US20240360148A1 (SUVALENT THERAPEUTICS, INC., priority 2021, published 2024).
